According to patent publication US11590116B2 (THERAVANCE BIOPHARMA R&D IP, LLC, priority 2019, dated 2023):

Legend:
[1] = biological target: T1, recombinant human ALK5 (TGF-βR1) protein (Homo sapiens, UniProt P36897); assay: Biochemical ALK5 (TGF-βR1) assay to measure pKi (LANCE Ultra ULight kinase assay); settings: apparent pKi from pIC50 by Cheng-Prusoff, read-out: ALK5 pKi (converted)
T1 construct: purchased Life Technologies PR9075A
T1 sequence (P36897 34-503): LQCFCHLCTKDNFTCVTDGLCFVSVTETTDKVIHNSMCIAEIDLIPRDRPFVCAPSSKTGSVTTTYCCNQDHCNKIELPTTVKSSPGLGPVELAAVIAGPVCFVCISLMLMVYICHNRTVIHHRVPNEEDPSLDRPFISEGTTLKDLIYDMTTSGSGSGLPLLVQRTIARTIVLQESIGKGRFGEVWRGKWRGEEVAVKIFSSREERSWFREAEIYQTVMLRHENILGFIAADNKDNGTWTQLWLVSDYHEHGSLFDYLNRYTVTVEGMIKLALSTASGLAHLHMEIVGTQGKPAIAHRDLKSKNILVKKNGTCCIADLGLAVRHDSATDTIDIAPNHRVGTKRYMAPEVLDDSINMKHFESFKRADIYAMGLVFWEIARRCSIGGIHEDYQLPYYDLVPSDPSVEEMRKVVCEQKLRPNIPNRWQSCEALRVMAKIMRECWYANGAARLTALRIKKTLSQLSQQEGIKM
Method in brief: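 Compounds (10 μM to 25 pM) preincubated 60 minutes at room temperature with enzyme, then reaction run 60 minutes at 37° C with ATP added as 125 μM (5× final). Stopped with EDTA plus Eu-anti-phospho-Topoisomerase 2-alpha (Thr1342) antibody, TR-FRET read at 665 nm; pIC50 converted to pKi via Cheng-Prusoff.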

[2] = test system: TGF-β-stimulated SMAD3 phosphorylation in BEAS-2B cells; assay: Cellular ALK5 potency assay, inhibition of TGF-β stimulated pSMAD3 formation in BEAS-2B cells; format: cell-based; settings: Homo sapiens; inhibition of TGF-β stimulated pSMAD3 formation, BEAS-2B cells; read-out: BEAS2B pIC50 (converted)
Method in brief: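 BEAS-2B human lung epithelial cells pre-treated 1 h at 37° C with compound in HBSS/25 mM HEPES/1% BSA, then stimulated 30 min with 10 ng/mL TGF-β (final). Lysates assayed for pSMAD3 by AlphaLISA; pIC50 from dose-dependent change versus stimulated untreated cells.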

Ki [1] [nM]	Structure (SMILES)	IC50 [2] [nM]
< 0.0316	Cc1cccc(-c2n[nH]cc2-c2ccc3ncc(N4CCC(N5CCCC5)C4)cc3n2)n1 (centres unmarked) [Compound 336, 2-[3-(6-methyl-2-pyridyl)-1H-pyrazol-4-yl]-7-(3-pyrrolidin-1-ylpyrrolidin-1-yl)-1,5-naphthyridine]	25.1 to 158
0.0398 to 0.316	Cc1cccc(-c2[nH]cnc2-c2ccc3ncc(N4CCC(C(=O)O[C@@H]5CCN(C)C5)CC4)cc3c2)n1 [Compound 702, [(3R)-1-methylpyrrolidin-3-yl] 1-[6-[5-(6-methyl-2-pyridyl)-1H-imidazol-4-yl]-3-quinolyl]piperidine-4-carboxylate]	25.1 to 158
0.398 to 3.16	Cc1cccc(-c2n[nH]cc2-c2ccc3nccc(N)c3n2)n1 [Compound 835, 6-[3-(6-methyl-2-pyridyl)-1H-pyrazol-4-yl]-1,5-naphthyridin-4-amine]	25.1 to 158
< 0.0316	Cc1cccc(-c2n[nH]cc2-c2ccc3ncc(-c4c[nH]nn4)cc3n2)n1 [Compound 355, 2-[3-(6-methyl-2-pyridyl)-1H-pyrazol-4-yl]-7-(1H-triazol-4-yl)-1,5-naphthyridine]	< 20
0.0398 to 0.316	Cc1cccc(-c2[nH]cnc2-c2ccc3ncc(C(=O)OCC4CC5(CNC5)C4)cc3c2)n1 [Compound 1116, 2-azaspiro[3.3]heptan-6-ylmethyl 6-[5-(6-methyl-2-pyridyl)-1H-imidazol-4-yl]quinoline-3-carboxylate]	200 to 1260
0.0398 to 0.316	Cc1cccc(-c2[nH]cnc2-c2ccc3ncc(-c4cccc(C(=O)OC5CNC5)n4)cc3c2)n1 [Compound 1128, azetidin-3-yl 6-[6-[5-(6-methyl-2-pyridyl)-1H-imidazol-4-yl]-3-quinolyl]pyridine-2-carboxylate]	25.1 to 158
0.398 to 3.16	Cc1cccc(-c2[nH]cnc2-c2ccc3ncc(-c4nccc(C(=O)O[C@H]5CCNC5)n4)cc3c2)n1 [Compound 1073, [(3S)-pyrrolidin-3-yl] 2-[6-[5-(6-methyl-2-pyridyl)-1H-imidazol-4-yl]-3-quinolyl]pyrimidine-4-carboxylate]	1580 to 10000
0.0398 to 0.316	COC[C@H]1CN(CCNc2cnc3ccc(-c4nc[nH]c4-c4cccc(C)n4)cc3c2)CCN1 [Compound 37, N-[2-[(3R)-3-(methoxymethyl)piperazin-1-yl]ethyl]-6-[5-(6-methyl-2-pyridyl)-1H-imidazol-4-yl]quinolin-3-amine]	25.1 to 158
0.0398 to 0.316	Cc1cccc(-c2n[nH]c(NCCN3CCOCC3)c2-c2ccc3ncc(-c4ccncc4)cc3n2)n1 [Compound 468, 3-(6-methylpyridin-2-yl)-N-(2-morpholinoethyl)-4-(7-(pyridin-4-yl)-1,5-naphthyridin-2-yl)-1H-pyrazol-5-amine]	200 to 1260
0.0398 to 0.316	Cc1cccc(-c2[nH]cnc2-c2ccc3ncc(C4=CC[C@@H](NC(=O)[C@H]5CCCN5)CC4)cc3c2)n1 [Compound 777, (2R)-N-[(1S)-4-[6-[5-(6-methyl-2-pyridyl)-1H-imidazol-4-yl]-3-quinolyl]cyclohex-3-en-1-yl]pyrrolidine-2-carboxamide]	25.1 to 158
0.0398 to 0.316	Cc1cccc(-c2[nH]cnc2-c2ccc3ncc(NCCN4CCC[C@@H](N)C4)cc3c2)n1 [Compound 730, N-[2-[(3R)-3-amino-1-piperidyl]ethyl]-6-[5-(6-methyl-2-pyridyl)-1H-imidazol-4-yl]quinolin-3-amine]	25.1 to 158
< 0.0316	CNCCn1cc(-c2cnc3ccc(-c4c[nH]nc4-c4cccc(C)n4)nc3c2)cn1 [Compound 487, N-methyl-2-[4-[6-[3-(6-methyl-2-pyridyl)-1H-pyrazol-4-yl]-1,5-naphthyridin-3-yl]pyrazol-1-yl]ethanamine]	< 20
0.0398 to 0.316	Cc1cccc(-c2nnn(C)c2-c2ccc3ncc(NCCN4CCN(C(C)C)CC4)cc3c2)n1 [Compound 244, N-[2-(4-isopropylpiperazin-1-yl)ethyl]-6-[3-methyl-5-(6-methyl-2-pyridyl)triazol-4-yl]quinolin-3-amine]	25.1 to 158
0.0398 to 0.316	Cc1cccc(-c2[nH]cnc2-c2ccc3ncc(C(=O)OC4CCNCC4)cc3c2)n1 [Compound 740, piperidin-4-yl 6-(5-(6-methylpyridin-2-yl)-1H-imidazol-4-yl)quinoline-3-carboxylate]	25.1 to 158
0.0398 to 0.316	CNCCn1cc(-c2cnc3ccc(-c4c(-c5cccc(C)n5)[nH]c5cccnc45)nc3c2)cn1 [Compound 165, N-methyl-2-[4-[6-[2-(6-methyl-2-pyridyl)-1H-pyrrolo[3,2-b]pyridin-3-yl]-1,5-naphthyridin-3-yl]pyrazol-1-yl]ethanamine]	200 to 1260
0.0398 to 0.316	Cc1cccc(-c2[nH]cnc2-c2ccc3ncc(-c4cncc(CN5CCNCC5)c4)cc3c2)n1 [Compound 1117, 6-[5-(6-methyl-2-pyridyl)-1H-imidazol-4-yl]-3-[5-(piperazin-1-ylmethyl)-3-pyridyl]quinoline]	25.1 to 158
0.0398 to 0.316	Cc1cccc(-c2[nH]cnc2-c2ccc3ncc(-c4ccc(C(=O)O)s4)cc3c2)n1 [Compound 1005, 5-(6-(5-(6-methylpyridin-2-yl)-1H-imidazol-4-yl)quinolin-3-yl)thiophene-2-carboxylic acid]	1580 to 10000
0.0398 to 0.316	Cc1cccc(-c2[nH]cnc2-c2ccc3ncc(N4CC5(CC(N)C5)C4)cc3c2)n1 [Compound 624, 2-[6-[5-(6-methyl-2-pyridyl)-1H-imidazol-4-yl]-3-quinolyl]-2-azaspiro[3.3]heptan-6-amine]	25.1 to 158
0.398 to 3.16	CN[C@H]1CC[C@H](OC(=O)c2ccnc3ccc(-c4cn[nH]c4-c4cccc(C)n4)cc23)CC1 [Compound 1179, [4-(methylamino)cyclohexyl] 6-[5-(6-methyl-2-pyridyl)-1H-pyrazol-4-yl]quinoline-4-carboxylate]	25.1 to 158
0.0398 to 0.316	Cc1cccc(-c2n[nH]cc2-c2ccc3nccc(N4CCC(N5CCOCC5)CC4)c3n2)n1 [Compound 847, 4-[1-[6-[3-(6-methyl-2-pyridyl)-1H-pyrazol-4-yl]-1,5-naphthyridin-4-yl]-4-piperidyl]morpholine]	25.1 to 158
< 0.0316	CNC1(Cn2cc(-c3cnc4ccc(-c5c[nH]nc5-c5ccc(F)c(C)n5)nc4c3)cn2)CC1 [Compound 97, 1-[[4-[6-[3-(5-fluoro-6-methyl-2-pyridyl)-1H-pyrazol-4-yl]-1,5-naphthyridin-3-yl]pyrazol-1-yl]methyl]-N-methyl-cyclopropanamine]	< 20
0.0398 to 0.316	COC(=O)CC1CNCCN1CCNc1cnc2ccc(-c3nc[nH]c3-c3cccc(C)n3)cc2c1 (centres unmarked) [Compound 659, methyl 2-[1-[2-[[6-[5-(6-methyl-2-pyridyl)-1H-imidazol-4-yl]-3-quinolyl]amino]ethyl]piperazin-2-yl]acetate]	200 to 1260
0.0398 to 0.316	Cc1cccc(-c2nc3n(c2-c2ccc4ncc(-c5cn[nH]c5)cc4c2)CCNC3)n1 [Compound 635, 6-(2-(6-methylpyridin-2-yl)-5,6,7,8-tetrahydroimidazo[1,2-a]pyrazin-3-yl)-3-(1H-pyrazol-4-yl)quinoline]	200 to 1260
< 0.0316	Cc1cccc(-c2[nH]cnc2-c2ccc3ncc(N4CCC5(CCNCC5)C4)cc3c2)n1 [Compound 160, 2-[6-[5-(6-methyl-2-pyridyl)-1H-imidazol-4-yl]-3-quinolyl]-2,8-diazaspiro[4.5]decane]	25.1 to 158
0.0398 to 0.316	Cc1cccc(-c2nnn(Cc3ccccc3)c2-c2ccc3ncc(N4CCC(N5CCN(C)CC5)CC4)cc3c2)n1 [Compound 533, 6-[3-benzyl-5-(6-methyl-2-pyridyl)triazol-4-yl]-3-[4-(4-methylpiperazin-1-yl)-1-piperidyl]quinoline]	200 to 1260
0.0398 to 0.316	Cc1cccc(-c2[nH]cnc2-c2ccc3ncc(N4CCCC5(CNC5)C4)cc3c2)n1 [Compound 280, 3-(2,6-diazaspiro[3.5]nonan-6-yl)-6-[5-(6-methyl-2-pyridyl)-1H-imidazol-4-yl]quinoline]	200 to 1260
0.0398 to 0.316	Cc1nc(-c2n[nH]cc2-c2ccc3ncc(N4CCCNCC4)cc3c2)ccc1F [Compound 209, 3-(1,4-diazepan-1-yl)-6-[3-(5-fluoro-6-methyl-2-pyridyl)-1H-pyrazol-4-yl]quinoline]	25.1 to 158
0.0398 to 0.316	Cc1cccc(-c2[nH]ncc2-c2ccc3nccc(C(=O)OCCN4C[C@@H](C)N[C@@H](C)C4)c3c2)n1 [Compound 1176, 2-[(3R,5S)-3,5-dimethylpiperazin-1-yl]ethyl 6-[5-(6-methyl-2-pyridyl)-1H-pyrazol-4-yl]quinoline-4-carboxylate]	25.1 to 158
